Some test systems named below: MDA-MB-435; IGROV1 ovarian; HCT-15 colon; COLO 205 colon; SR leukemia; MOLT-4 leukemia; SF-295 CNS; ACHN renal; MALME-3M melanoma; LOX IMVI melanoma.
Holding throughout (test): inhibition of tumour cell growth, NCI panel, 48 h

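Protocol summary: plate cells (96-well), add compound at 5 concentrations, incubate 48 h, interpolate endpoints linearly. The concentration for 50% growth inhibition is given as GI50. Definition used: TGI = concentration required for complete inhibition of growth.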

As for `C=C1C(=O)O[C@H]2[C@H]1CC(=O)/C(C)=C\CC[C@@]1(C)O[C@@H]21`, the GI50 was 2.98 µg/mL with MDA-MB-435; 2.17 µg/mL in the test on IGROV1 ovarian; 0.83 µg/mL with HCT-15 colon; 0.755 µg/mL in the test on COLO 205 colon; 0.759 µg/mL in the test with SR leukemia; 1.12 µg/mL with MOLT-4 leukemia. For the same compound, the GI50 with SF-295 CNS was 5.55 µg/mL; in the test with ACHN renal it was 0.822 µg/mL. In addition, the TGI is 7.14 µg/mL in the test on MDA-MB-435; 5.8 µg/mL with IGROV1 ovarian; 3.68 µg/mL in the test with HCT-15 colon; 3.54 µg/mL in the test with COLO 205 colon; 9.5 µg/mL in the test with SR leukemia; 4.7 µg/mL in the test with MOLT-4 leukemia. Further, the results for the TGI in the test on SF-295 CNS and in the test with ACHN renal were 12.4 µg/mL and 2.38 µg/mL, respectively.
With `c1ccc2c(c1)ccc1c3ccccc3ccc21`, the GI50 in the test with MDA-MB-435, with IGROV1 ovarian, with MALME-3M melanoma, with HCT-15 colon, with COLO 205 colon and with MOLT-4 leukemia was greater than 50 µM in each case. For the same compound, the GI50 in the test on LOX IMVI melanoma and with ACHN renal was greater than 50 µM each time. For the same compound, the TGI in the test with MDA-MB-435, in the test with IGROV1 ovarian, in the test with MALME-3M melanoma, in the test with HCT-15 colon, in the test on COLO 205 colon and with MOLT-4 leukemia was greater than 50 µM each time. Also, the TGI with LOX IMVI melanoma and in the test on ACHN renal was greater than 50 µM in each case.
Consider `C=CCNc1cccc2c1C(=O)c1ccccc1C2(O)CC=C` (centres undefined), for which the GI50 in the test with MDA-MB-435 was 24.6 µM; with IGROV1 ovarian, 33.3 µM; in the test with HCT-15 colon, 15.5 µM; with COLO 205 colon it was 16.2 µM; with SR leukemia, 36.8 µM; in the test on MOLT-4 leukemia it was 41.8 µM. The values for the GI50 in the test on SF-295 CNS, with LOX IMVI melanoma and in the test on ACHN renal were 25.7 µM, 18.6 µM and 28.5 µM, respectively. For the same compound, the TGI is 59 µM in the test with MDA-MB-435; greater than 100 µM in the test with IGROV1 ovarian; 57 µM with HCT-15 colon; 36.1 µM in the test on COLO 205 colon; greater than 100 µM with SR leukemia; greater than 100 µM in the test with MOLT-4 leukemia. Moreover, the TGI in the test with SF-295 CNS amounted to 55 µM; in the test with LOX IMVI melanoma it was 35.9 µM; in the test on ACHN renal, 65.3 µM.
With `CS(=O)(=O)CS(=O)CS(=O)CS(=O)CC(NC(=O)CCC(N)C(=O)O)C(=O)O` (centres undefined), the TGI in the test with MDA-MB-435, with IGROV1 ovarian, in the test on HCT-15 colon, with COLO 205 colon, in the test with SR leukemia and with MOLT-4 leukemia was greater than 100 µM each time. The TGI with SF-295 CNS, in the test on LOX IMVI melanoma and in the test with ACHN renal was greater than 100 µM throughout.
As for `CC(C)(C)n1cc(-c2ccnc(NCCNS(=O)(=O)c3cccc4ccccc34)c2)c(-c2cccc(F)c2)n1`, the GI50 in the test with MDA-MB-435 is 19.1 µM; in the test on IGROV1 ovarian, 18.6 µM; with MALME-3M melanoma it was 15.3 µM; in the test on HCT-15 colon, 6 µM; in the test on COLO 205 colon, 8.98 µM; with SR leukemia, 9.27 µM. Further, the GI50 was 10 µM in the test with MOLT-4 leukemia, 22.3 µM in the test with SF-295 CNS and 18.9 µM in the test on ACHN renal. In addition, the TGI in the test on MDA-MB-435 is 38.7 µM; in the test on IGROV1 ovarian, 64.3 µM; in the test on MALME-3M melanoma, 36.8 µM; in the test with HCT-15 colon it was 24.9 µM; with COLO 205 colon it was 43.3 µM; in the test with SR leukemia, greater than 100 µM. Besides, the TGI in the test on MOLT-4 leukemia is greater than 100 µM; in the test on SF-295 CNS, 57.3 µM; in the test with ACHN renal, 49 µM.
For the compound `Clc1ccc(Nc2nc3ccccc3c3occc23)cc1`, the GI50 with MDA-MB-435 was 7.5 µM; with IGROV1 ovarian it was 10.2 µM; with HCT-15 colon, 11.2 µM; with COLO 205 colon, 6 µM; in the test with SR leukemia it was 23.2 µM; in the test on SF-295 CNS, 6.86 µM. Moreover, the GI50 in the test with LOX IMVI melanoma was 5.49 µM; in the test on ACHN renal it was 9.16 µM. The TGI in the test with MDA-MB-435 was 14.1 µM; in the test on IGROV1 ovarian it was 27.3 µM; in the test on HCT-15 colon, 34.4 µM; in the test with COLO 205 colon, 13 µM; with SR leukemia, greater than 50 µM; in the test on SF-295 CNS, 13.3 µM. The TGI with LOX IMVI melanoma amounted to 14.3 µM; with ACHN renal, 18.9 µM.
For the compound `COc1ccc(Nc2c[nH]c(=O)[nH]c2=O)cc1`, the TGI in the test on MDA-MB-435, with IGROV1 ovarian, in the test with MALME-3M melanoma, in the test with HCT-15 colon, in the test on COLO 205 colon and in the test with MOLT-4 leukemia was greater than 100 µM in each case. For the same compound, the TGI in the test with SF-295 CNS, in the test on LOX IMVI melanoma and with ACHN renal was greater than 100 µM in each case.
For the compound `COP1(=S)OCC2CCC[C@@H]2O1` (some centres undefined), the TGI in the test on MDA-MB-435, in the test with IGROV1 ovarian, in the test with MALME-3M melanoma, in the test on HCT-15 colon, in the test with COLO 205 colon and in the test on SR leukemia was greater than 100 µM each time. Moreover, the TGI in the test on MOLT-4 leukemia, with SF-295 CNS and with ACHN renal was greater than 100 µM each time.
Turning to `N#Cc1ccc2oc3ccc(C#N)cc3c(=O)c2c1`, the TGI in the test on MDA-MB-435 is greater than 100 µM; in the test with IGROV1 ovarian, greater than 100 µM; with MALME-3M melanoma, 50.8 µM; in the test on HCT-15 colon, greater than 100 µM; with COLO 205 colon it was greater than 100 µM; in the test with SR leukemia, greater than 100 µM. The TGI in the test with MOLT-4 leukemia was 46.9 µM; with SF-295 CNS, 47.1 µM; in the test on ACHN renal it was greater than 100 µM.
With `Oc1ccccc1C=Nc1ccccc1N=Cc1ccccc1O`, the TGI in the test on IGROV1 ovarian, in the test on MALME-3M melanoma, with HCT-15 colon, in the test with COLO 205 colon, in the test with SR leukemia and in the test on MOLT-4 leukemia was greater than 100 µM each time. Also, the TGI with SF-295 CNS, in the test on LOX IMVI melanoma and in the test on ACHN renal was greater than 100 µM throughout.

Source of the values: PubChem BioAssay (NCI).
